Test results: ChEMBL document CHEMBL6103589, “Synthesis and evaluation of novel ebselen derivatives as urease inhibitors for combating Helicobacter pylori infections” (Eur J Med Chem, 2025)
Calls of active or inactive are those of the source. The calls are words filed in the database; no cut-off is given here.

Experiments:
Helicobacter pylori [1] = assay: Protection against Helicobacter pylori ATCC 43504 infected (MOI 50:1) in human GES1 cell injury model assessed as late apoptotic cells at 25 uM pre-treated for 2 hrs measured after 6 hrs by Annexin/V-FITC staining based flow cytometry analysis (reference value: 2.85%); type: functional; conditions: time 8 hrs
Helicobacter pylori [2] = assay: (§1) Protection against Helicobacter pylori ATCC 43504 infected (MOI 100:1) in human GES1 cell injury model assessed as early apoptotic cells at 25 uM pre-treated for 2 hrs followed by bacterial infection measured after 6 hrs by Annexin/V-FITC staining based flow cytometry analysis (reference value: 24.66 %); type: functional; conditions: time 8 hrs
Helicobacter pylori [3] = assay: In vivo protection against Helicobacter pylori ATCC 43504 infected in BALB/c mouse gastric mucosa model assessed as appearance of intact tissue structure at 25 mg/kg administered once a day for 2 weeks by HE staining based analysis; type: functional, organism-based
Helicobacter pylori [4] = assay: In vivo protection against Helicobacter pylori ATCC 43504 infected in BALB/c mouse gastric mucosa model assessed as effect on inflammatory cell infiltration at low dose administered once a day for 2 weeks by HE staining based analysis; type: functional, organism-based
Helicobacter pylori [5] = assay: In vivo protection against Helicobacter pylori ATCC 43504 infected in BALB/c mouse gastric mucosa model assessed as effect on hyperplasia at high dose administered once a day for 2 weeks by HE staining based analysis; type: functional, organism-based
GES1 [6] = assay: Induction of DNA damage in human GES1 cells infected (25 to 400:1 MOI) with Helicobacter pylori ATCC 43504 assessed as increase in gammaH2AX levels at 25 to 50 uM by SP8 laser confocal microscopic analysis; type: functional, cell-based; conditions: dose 25-50 µM
Helicobacter pylori [7] = assay: Protection against Helicobacter pylori ATCC 43504 infected (MOI 50:1) in human GES1 cell injury model assessed as viable cells at 25 uM pre-treated for 2 hrs measured after 6 hrs by Annexin/V-FITC staining based flow cytometry analysis (reference value: 81.14%); type: functional; conditions: time 8 hrs
Helicobacter pylori [8] = assay: In vivo protection against Helicobacter pylori ATCC 43504 infected in BALB/c mouse gastric mucosa model assessed as effect on bleeding at high dose administered once a day for 2 weeks by HE staining based analysis; type: functional, organism-based
Helicobacter pylori [9] = assay: In vivo protection against Helicobacter pylori ATCC 43504 infected in BALB/c mouse gastric mucosa model assessed as appearance of intact muscularis mucosa at high dose administered once a day for 2 weeks by HE staining based analysis; type: functional, organism-based
Helicobacter pylori [10] = assay: In vivo protection against Helicobacter pylori ATCC 43504 infected in BALB/c mouse gastric mucosa model assessed as appearance of intact epithelium at high dose administered once a day for 2 weeks by HE staining based analysis; type: functional, organism-based
Helicobacter pylori [11] = assay: as §1, with “200:1)” for “100:1)”, “late” for “early”, “50” for “25”, “6.28%)” for “24.66 %)”; type: functional; conditions: time 8 hrs
[12] = Stability of the compound in simulated gastric fluid; type: physicochemical; conditions: simulated gi fluid
Helicobacter pylori [13] = assay: Protection against Helicobacter pylori ATCC 43504 infected (MOI 100:1) in human GES1 cell injury model assessed as necrotic cells at 25 uM pre-treated for 2 hrs followed by bacterial infection measured after 6 hrs by Annexin/V-FITC staining based flow cytometry analysis (reference value: 2.82%); type: functional; conditions: time 8 hrs
Helicobacter pylori [14] = assay: In vivo protection against Helicobacter pylori ATCC 43504 infected in BALB/c mouse gastric mucosa model assessed as effect on pathological lesion at low dose administered once a day for 2 weeks by HE staining based analysis; type: functional, organism-based
[15] = Acute toxicity in BALB/c mouse assessed as change in stool consistency at 1 g/Kg, po single dose administered for 7 days; type: organism-based; conditions: in vivo, 1000 mg/kg, 168 h, time 7 day
Helicobacter pylori [16] = assay: as §1, with “200:1)” for “100:1)”, “late” for “early”, “6.28%)” for “24.66 %)”; type: functional; conditions: time 8 hrs
Helicobacter pylori [17] = assay: as §1, with “400:1)” for “100:1)”, “50” for “25”, “42.41” for “24.66”; type: functional; conditions: time 8 hrs
[18] = Acute toxicity in BALB/c mouse assessed as change in body weight at 1 g/Kg, po single dose administered for 7 days; type: organism-based; conditions: in vivo, 1000 mg/kg, 168 h, time 7 day
Helicobacter pylori [19] = assay: Protection against Helicobacter pylori ATCC 43504 infected (MOI 25:1) in human GES1 cell injury model assessed as viable cells at 50 uM pre-treated for 2 hrs followed by bacterial infection measured after 6 hrs by Annexin/V-FITC staining based flow cytometry analysis (reference value: 89.14%); type: functional; conditions: time 8 hrs
Helicobacter pylori [20] = assay: Protection against Helicobacter pylori ATCC 43504 infected (MOI 25:1) in human GES1 cell injury model assessed as late apoptotic cells at 25 uM pre-treated for 2 hrs followed by bacterial infection measured after 6 hrs by Annexin/V-FITC staining based flow cytometry analysis (reference value: 0.31%); type: functional; conditions: time 8 hrs
[21] = Acute toxicity in BALB/c mouse assessed as pathological abnormality in kidney at 1 g/Kg, po single dose administered for 7 days by HE staining based analysis; type: organism-based; conditions: in vivo, 1000 mg/kg, 168 h, time 7 day
Helicobacter pylori [22] = assay: as §1, with “300:1)” for “100:1)”, “34.57” for “24.66”; type: functional; conditions: time 8 hrs
Helicobacter pylori [23] = assay: Protection against Helicobacter pylori ATCC 43504 infected (MOI 100:1) in human GES1 cell injury model assessed as viable cells at 50 uM pre-treated for 2 hrs followed by bacterial infection measured after 6 hrs by Annexin/V-FITC staining based flow cytometry analysis (reference value: 68.36%); type: functional; conditions: time 8 hrs
Helicobacter pylori [24] = assay: Protection against Helicobacter pylori ATCC 43504 infected (MOI 50:1) in human GES1 cell injury model assessed as early apoptotic cells at 25 uM pre-treated for 2 hrs measured after 6 hrs by Annexin/V-FITC staining based flow cytometry analysis (reference value: 13.16 %); type: functional; conditions: time 8 hrs
GES1 [25] = assay: Induction of ROS generation in human GES1 cells infected (25 to 400:1 MOI) with Helicobacter pylori ATCC 43504 assessed as decrease in fluorescence intensity at 25 to 50 uM by DCFH-DA based Immunofluorescence analysis; type: functional, cell-based; conditions: dose 25-50 µM
Helicobacter pylori [26] = assay: as §1, with “300:1)” for “100:1)”, “50” for “25”, “34.57” for “24.66”; type: functional; conditions: time 8 hrs
Helicobacter pylori [27] = assay: Protection against Helicobacter pylori ATCC 43504 infected (MOI 100:1) in human GES1 cell injury model assessed as viable cells followed by bacterial infection at 25 uM pre-treated for 2 hrs measured after 6 hrs by Annexin/V-FITC staining based flow cytometry analysis (reference value: 68.36%); type: functional; conditions: time 8 hrs
Helicobacter pylori [28] = assay: Protection against Helicobacter pylori ATCC 43504 infected (MOI 400:1) in human GES1 cell injury model assessed as viable cells at 25 uM pre-treated for 2 hrs followed by bacterial infection measured after 6 hrs by Annexin/V-FITC staining based flow cytometry analysis (reference value: 37.61%); type: functional; conditions: time 8 hrs
Helicobacter pylori [29] = assay: Protection against Helicobacter pylori ATCC 43504 infected (MOI 200:1) in human GES1 cell injury model assessed as necrotic cells at 25 uM pre-treated for 2 hrs followed by bacterial infection measured after 6 hrs by Annexin/V-FITC staining based flow cytometry analysis (reference value: 3.92%); type: functional; conditions: time 8 hrs

Structure (SMILES): O=C(Oc1n[se]c2ccccc12)c1cccc(F)c1
- Activity (Helicobacter pylori [1]): 0.05%
- Activity (Helicobacter pylori [2]): 7.64%
- Activity (Helicobacter pylori [3]): Active
- Activity (Helicobacter pylori [4]): Active
- Activity (Helicobacter pylori [5]): inactive
- Activity (GES1 [6]): Active
- Activity (Helicobacter pylori [7]): 95.32%
- Activity (Helicobacter pylori [8]): inactive
- Activity (Helicobacter pylori [9]): Active
- Activity (Helicobacter pylori [10]): Active
- Activity (Helicobacter pylori [11]): 0.21%
- Stability [12]: Stable
- Activity (Helicobacter pylori [13]): 0.43%
- Activity (Helicobacter pylori [14]): inactive
- Activity [15]: Non-toxic
- Activity (Helicobacter pylori [16]): 0.02%
- Activity (Helicobacter pylori [17]): 7.61%
- Activity [18]: Non-toxic
- Activity (Helicobacter pylori [19]): 99.06%
- Activity (Helicobacter pylori [20]): 0.02%
- Activity [21]: Non-toxic
- Activity (Helicobacter pylori [22]): 15.81%
- Activity (Helicobacter pylori [23]): 96.82%
- Activity (Helicobacter pylori [24]): 4.49%
- Activity (GES1 [25]): Active
- Activity (Helicobacter pylori [26]): 3.14%
- Activity (Helicobacter pylori [27]): 91.76%
- Activity (Helicobacter pylori [28]): 82.13%
- Activity (Helicobacter pylori [29]): 0.12%
